Reference: patent US7112601B2, “Cycloalkyl heterocycles for treating hepatitis C virus” (priority 2003, dated 2006)

These compounds were tested against T1, HCV NS5B RdRp (Hepatitis C virus genotype 1b, UniProt Q9WMX2) (assay: HCV NS5B RdRp enzyme inhibition assay).
T1 construct: The protein was expressed with an 18 amino acid C-terminal truncation to enhance the solubility; made in house; host or cells: E. coli BL21(DE3)
Format: biochemical
Method: HCV NS5B RdRp cloning, expression, and purification. The cDNA encoding the NS5B protein of HCV, genotype 1b, was cloned into the pET21a expression vector. The protein was expressed with an 18 amino acid C-terminal truncation to enhance the solubility. The E. coli competent cell line BL21(DE3) was used for expression of the protein. Cultures were grown at 37° C. for ˜4 hours until the cultures reached an optical density of 2.0 at 600 nm. The cultures were cooled to 20° C. and induced with 1 mM IPTG. Fresh ampicillin was added to a final concentration of 50 ug/ml and the cells were grown overnight at 20° C.
Cell pellets (3L) were lysed for purification to yield 15–24 mgs of purified NS5B. The lysis buffer consisted of 20 mM Tris-HCl, pH 7.4, 500 mM NaCl, 0.5% triton X-100, 1 mM DTT, 1 mM EDTA, 20% glycerol, 0.5 mg/ml lysozyme, 10 mM MgCl2, 15 ug/ml deoxyribonuclease I, and Complete TM protease inhibitor tablets (Roche). After addition of the lysis buffer, frozen cell pellets were resuspended using a tissue homogenizer. To reduce the viscosity of the sample, aliquots of the lysate were sonicated on ice using a microtip attached to a Branson sonicator. The sonicated lysate was centrifuged at 100,000×g for 1 hr at 4° C. and filtered through a 0.2 μm filter unit (Corning).
The protein was purified using three sequential chromatography steps: Heparin sepharose CL-6B, polyU sepharose 4B, and Hitrap SP sepharose (Pharmacia). The chromatography buffers were identical to the lysis buffer but contained no lysozyme, deoxyribonuclease I, MgCl2 or protease inhibitor and the NaCl concentration of the buffer was adjusted according to the requirements for charging the protein onto the column. Each column was eluted with a NaCl gradient which varied in length from 5–50 column volumes depending on the column type. After the final chromatography step, the resulting purity of the enzyme is >90% based on SDS-PAGE analysis. The enzyme was aliquoted and stored at −80° C.
HCV NS5B RdRp enzyme assay. HCV RdRp genotype 1b assays were run in assay buffer composed of 20 mM Tris-HCl, pH 7.5, 2.5 mM KCl, 5 mM MgCl2, 1 mM DTT, 1.6 U RNAse inhibitor (Promega N2515), in 96 well plates (Falcon 3918). All compounds were serially diluted in DMSO and diluted further in assay buffer such that the final concentration of DMSO in the assay was 2%. Compounds were serially diluted (3-fold each time) for a 7 point inhibition analysis. HCV RdRp genotype 1b enzyme was used at a final concentration of 28 nM. A polyA template was used at 28 nM, and the oligo-dT12-18 primer was used at 840 nM final concentration. Preannealed primer and template were obtained commercially (Amersham 27-787802). ^3H-UTP was used at 0.125 μCi (1 μM total UTP). Reaction was initiated by the addition of enzyme. Reactions were incubated at 30° C. for 45 min, and stopped by adding 30 ul of 20% ice cold TCA. Plates were chilled for 30 minutes and harvested onto Unifilter-96, GF/B plates (Packard, 6005177) using a Packard FilterMate Cell Harvester. The harvest plates were prewashed 3 times, 200 ul/well, with 100 mM NaPPi. Harvested filters were washed 30 times, 200 ul/well, with distilled water followed by ethanol. Filter plates were dried, and 30 ul/well microscint-20 was added. Plates were read on a Packard Top Count NXT.
The IC50 values for compounds were determined using […] different [I], combined with 7 nM enzyme, 800 ng of the template-primer polyC/oligoG12 (1:5 molar ratio), and 0.7 uM of ^3H GTP containing 1 uCi. The observed fractional activity (fa=vi/vo) was used in the equation IC50=[I]/(1/fa-1) to determine a single point IC50 value. Typically, the single point IC50 values derived from [I] that produced fractional activities in the range of 0.1 to 0.8 relative to the uninhibited control were averaged to calculate the IC50 value for each compound.

T1 sequence (Q9WMX2 2420-2992): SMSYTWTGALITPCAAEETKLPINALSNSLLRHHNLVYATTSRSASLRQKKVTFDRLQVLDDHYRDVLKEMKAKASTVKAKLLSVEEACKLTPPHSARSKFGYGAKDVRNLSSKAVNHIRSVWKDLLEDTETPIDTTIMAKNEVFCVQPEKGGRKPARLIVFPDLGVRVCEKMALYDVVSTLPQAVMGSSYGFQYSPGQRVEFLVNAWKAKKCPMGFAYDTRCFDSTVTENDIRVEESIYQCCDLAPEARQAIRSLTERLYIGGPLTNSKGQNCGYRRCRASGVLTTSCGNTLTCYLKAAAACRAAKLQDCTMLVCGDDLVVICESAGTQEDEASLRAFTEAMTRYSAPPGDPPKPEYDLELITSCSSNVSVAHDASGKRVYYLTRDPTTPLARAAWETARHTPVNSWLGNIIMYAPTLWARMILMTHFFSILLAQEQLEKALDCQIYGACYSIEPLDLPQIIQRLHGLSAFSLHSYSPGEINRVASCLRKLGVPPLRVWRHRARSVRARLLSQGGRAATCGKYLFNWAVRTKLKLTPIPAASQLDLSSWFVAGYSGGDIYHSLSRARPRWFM

Row | Compound | IC50 [µM]
1 | CCOC(=O)c1cc(-c2ccc(OCc3ccccc3)cc2)n(C2CCCCC2)n1 [Example 1, Ethyl 1-cyclohexyl-5-(4-benzyloxyphenyl)-1H-pyrazole-3-carboxylate] | > 25
2 | COC(=O)/C=C/c1cc(-c2ccc(OCc3ccccc3)cc2)n(C2CCCCC2)n1 [Example 2, Methyl (2E)-3-{5-[4-(benzyloxy)phenyl]-1-cyclohexyl-1H-pyrazol-3-yl}-2-propenoate] | > 25
3 | O=C(O)/C=C/c1cc(-c2ccc(OCc3ccccc3)cc2)n(C2CCCCC2)n1 [Example 3, (2E)-3-[1-cyclohexyl-5-(4-benzyloxyphenyl)-1H-pyrazol-3-yl]-2-propenoic acid] | 15
4 | COC(=O)/C=C/c1cc(-c2ccc(OCc3cc(OC)ccc3-c3ccc(Cl)cc3)cc2)n(C2CCCCC2)n1 [Example 4, Methyl (2E)-3-(5-{4-[(4′-chloro-4-methoxy-1,1′-biphenyl-2-yl)methoxy]phenyl}-1-cyclohexyl-1H-pyrazol-3-yl)-2-propenoate] | > 25
5 | COc1ccc(-c2ccc(Cl)cc2)c(COc2ccc(-c3cc(/C=C/C(=O)O)nn3C3CCCCC3)cc2)c1 [Example 5, (2E)-3-(5-{4-[(4′-chloro-4-methoxy-1,1′-biphenyl-2-yl)methoxy]phenyl}-1-cyclohexyl-1H-pyrazol-3-yl)-2-propenoic acid] | 0.45
6 | CCOC(=O)/C(C)=C/c1cc(-c2ccc(OCc3ccccc3)cc2)n(C2CCCCC2)n1 [Example 6, Ethyl (2E)-3-{5-[4-(benzyloxy)phenyl]-1-cyclohexyl-1H-pyrazol-3-yl}-2-methyl-2-propenoate] | > 25
7 | C/C(=C\c1cc(-c2ccc(OCc3ccccc3)cc2)n(C2CCCCC2)n1)C(=O)O [Example 7, (2E)-3-{5-[4-(benzyloxy)phenyl]-1-cyclohexyl-1H-pyrazol-3-yl}-2-methyl-2-propenoic acid] | 10
8 | CCOC(=O)/C(C)=C/c1cc(-c2ccc(OCc3cc(OC)ccc3-c3ccc(Cl)cc3)cc2)n(C2CCCCC2)n1 [Example 8, Ethyl (2E)-3-(5-{4-[(4′-chloro-4-methoxy-1,1′-biphenyl-2-yl)methoxy]phenyl}-1-cyclohexyl-1H-pyrazol-3-yl)-2-methyl-2-propenoate] | > 25
9 | COc1ccc(-c2ccc(Cl)cc2)c(COc2ccc(-c3cc(/C=C(\C)C(=O)O)nn3C3CCCCC3)cc2)c1 [Example 9, (2E)-3-(5-{4-[(4′-chloro-4-methoxy-1,1′-biphenyl-2-yl)methoxy]phenyl}-1-cyclohexyl-1H-pyrazol-3-yl)-2-methyl-2-propenoic acid] | 0.27
10 | CCOC(=O)/C(C)=C/c1cc(-c2ccc(OCc3cc(C(=O)OC(C)(C)C)ccc3Br)cc2)n(C2CCCCC2)n1 [Example 10, Ethyl (2E)-3-(5-{4-[(t-butyl-2-bromo-5-phenylcarboxylate)methoxy]phenyl}-1-cyclohexyl-1H-pyrazol-3-yl)-2-methyl-2-propenoate] | > 25
11 | CCOC(=O)/C(C)=C/c1cc(-c2ccc(OCc3cc(C(=O)OC(C)(C)C)ccc3-c3ccc(Cl)cc3)cc2)n(C2CCCCC2)n1 [Example 11, Ethyl (2E)-3-(5-{4-[(4′-chloro-4-t-butoxycarbonyl-1,1′-biphenyl-2-yl)methoxy]phenyl}-1-cyclohexyl-1H-pyrazol-3-yl)-2-methyl-2-propenoate] | > 25
12 | CCOC(=O)/C(C)=C/c1cc(-c2ccc(OCc3cc(C(=O)NC)ccc3-c3ccc(Cl)cc3)cc2)n(C2CCCCC2)n1 [Example 12, Ethyl (2E)-3-(5-{4-[(4′-Chloro-4-N-methylcarbamoyl-1,1′-biphenyl-2-yl)methoxy]phenyl}-1-cyclohexyl-1H-pyrazol-3-yl)-2-methyl-2-propenoate] | > 25
13 | CNC(=O)c1ccc(-c2ccc(Cl)cc2)c(COc2ccc(-c3cc(/C=C(\C)C(=O)O)nn3C3CCCCC3)cc2)c1 [Example 13, (2E)-3-(5-{4-[(4′-Chloro-4-N-methylcarbamoyl-1,1′-biphenyl-2-yl)methoxy]phenyl}-1-cyclohexyl-1H-pyrazol-3-yl)-2-methyl-2-propenoic acid] | 0.38
14 | COC(=O)CCc1cc(-c2ccc(OCc3ccccc3)cc2)n(C2CCCCC2)n1 [Example 14, Methyl 3-{5-[4-(benzyloxy)phenyl]-1-cyclohexyl-1H-pyrazol-3-yl}propanoate] | > 25
15 | O=C(O)CCc1cc(-c2ccc(OCc3ccccc3)cc2)n(C2CCCCC2)n1 [Example 15, 3-{5-[4-(benzyloxy)phenyl]-1-cyclohexyl-1H-pyrazol-3-yl}propanoic acid] | > 25
16 | COC(=O)CCc1cc(-c2ccc(OCc3cc(OC)ccc3-c3ccc(Cl)cc3)cc2)n(C2CCCCC2)n1 [Example 16, Methyl 3-(5-{4-[(4′-chloro-4-methoxy-1,1′-biphenyl-2-yl)methoxy]phenyl}-1-cyclohexyl-1H-pyrazol-3-yl)propanoate] | > 25
17 | COc1ccc(-c2ccc(Cl)cc2)c(COc2ccc(-c3cc(CCC(=O)O)nn3C3CCCCC3)cc2)c1 [Example 17, 3-(5-{4-[(4′-chloro-4-methoxy-1,1′-biphenyl-2-yl)methoxy]phenyl}-1-cyclohexyl-1H-pyrazol-3-yl)propanoic acid] | 1.8
18 | CCOC(=O)C#Cc1cc(-c2ccc(OCc3ccccc3)cc2)n(C2CCCCC2)n1 [Example 18, Ethyl 3-{5-[4-(benzyloxy)phenyl]-1-cyclohexyl-1H-pyrazol-3-yl}-2-propynoate] | > 25
19 | O=C(O)C#Cc1cc(-c2ccc(OCc3ccccc3)cc2)n(C2CCCCC2)n1 [Example 19, 3-{5-[4-(benzyloxy)phenyl]-1-cyclohexyl-1H-pyrazol-3-yl}-2-propynoic acid] | 4.9
20 | CCOC(=O)C#Cc1cc(-c2ccc(OCc3cc(OC)ccc3-c3ccc(Cl)cc3)cc2)n(C2CCCCC2)n1 [Example 20, Ethyl 3-(5-{4-[(4′-chloro-4-methoxy-1,1′-biphenyl-2-yl)methoxy]phenyl}-1-cyclohexyl-1H-pyrazol-3-yl)-2-propynoate] | > 25
21 | COc1ccc(-c2ccc(Cl)cc2)c(COc2ccc(-c3cc(C#CC(=O)O)nn3C3CCCCC3)cc2)c1 [Example 21, 3-(5-{4-[(4′-chloro-4-methoxy-1,1′-biphenyl-2-yl)methoxy]phenyl}-1-cyclohexyl-1H-pyrazol-3-yl)-2-propynoic acid] | 2.3
22 | CCOC(=O)c1nn(C2CCCCC2)c(-c2ccc(OCc3ccccc3)cc2)c1Br [Example 22, Ethyl 5-[4-(benzyloxy)phenyl]-4-bromo-1-cyclohexyl-1H-pyrazole-3-carboxylate] | > 25
23 | COC(=O)/C=C/c1nn(C2CCCCC2)c(-c2ccc(OCc3ccccc3)cc2)c1Br [Example 23, Methyl (2E)-3-{5-[4-(benzyloxy)phenyl]-4-bromo-1-cyclohexyl-1H-pyrazol-3-yl}-2-propenoate] | > 25
24 | O=C(O)/C=C/c1nn(C2CCCCC2)c(-c2ccc(OCc3ccccc3)cc2)c1Br [Example 24, (2E)-3-{5-[4-(benzyloxy)phenyl]-4-bromo-1-cyclohexyl-1H-pyrazol-3-yl}-2-propenoic acid] | 3.1
25 | COC(=O)/C=C/c1nn(C2CCCCC2)c(-c2ccc(OCc3ccccc3)cc2)c1-c1ccccc1 [Example 25, Methyl (2E)-3-{5-[4-(benzyloxy)phenyl]-1-cyclohexyl-4-phenyl-1H-pyrazol-3-yl}-2-propenate] | > 25
26 | COC(=O)/C=C/c1nn(C2CCCCC2)c(-c2ccc(OCc3cc(OC)ccc3-c3ccc(Cl)cc3)cc2)c1-c1ccccc1 [Example 27] | > 25
